Tests used:
redroot pigweed [1] = assay: Test Example 5: herbicidal effect by foliage application, plastic box (Table 20, symbol N); format: in vivo, redroot pigweed (Amaranthus retroflexus); conditions: foliage application, 320 g/ha, evaluated 3 weeks after application
How it was run: (§1)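 Foliar spray test: emulsion formulation diluted in water to a set application rate, sprayed onto 14-day-old plants raised in diluvial soil at 25° C to 30° C under glass. Both herbicidal effect and crop effect rated visually three weeks later.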

persian speedwell = assay: Test Example 5: herbicidal effect by foliage application, plastic box (Table 20, symbol R); format: in vivo, Persian speedwell (Veronica persica); conditions: foliage application, 320 g/ha, evaluated 3 weeks after application
How it was run: as §1

late watergrass = assay: Test Example 1: herbicidal activity, application before weed generation under submerged conditions (Table 16, symbol A); format: in vivo, late watergrass (Echinochloa oryzicola); conditions: amount of applied herbicide 320 g/ha
How it was run: (§2)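 Alluvial soil was flooded to 4 cm depth, weed seeds were sown mixed and 2.5-leaf rice seedlings were transplanted. On sowing day, the compound's emulsion, diluted in water to a set dose, was applied to the water surface. Plants grew at 25–30 °C and were scored 0–5 after three weeks.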

green foxtail [2] = assay: Test Example 5: herbicidal effect by foliage application, plastic box (Table 20, symbol G); format: in vivo, green foxtail (Setaria viridis); conditions: foliage application, 320 g/ha, evaluated 3 weeks after application
How it was run: as §1

redroot pigweed [3] = assay: Test Example 4: herbicidal effect by soil treatment (Table 19, symbol N); format: in vivo, redroot pigweed (Amaranthus retroflexus); conditions: amount of applied herbicide 320 g/ha
How it was run: (§3)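 Step 1: sow seeds in sterilized diluvial soil, cover ~1.5 cm. Step 2: spray diluted emulsion onto soil surface at predetermined rate. Step 3: greenhouse, 25–30° C, three weeks. Step 4: grade effect on each plant by earlier criteria.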

blackgrass [4] = assay: Test Example 5: herbicidal effect by foliage application, plastic box (Table 20, symbol J); format: in vivo, blackgrass (Alopecurus myosuroides); conditions: foliage application, 320 g/ha, evaluated 3 weeks after application
How it was run: as §1

windgrass = assay: Test Example 5: herbicidal effect by foliage application, plastic box (Table 20, symbol L); format: in vivo, windgrass (Apera spica-venti); conditions: foliage application, 320 g/ha, evaluated 3 weeks after application
How it was run: as §1

Chinese sprangletop = assay: Test Example 3: herbicidal effect by foliage application, Wagner pot (Table 18, symbol D); format: in vivo, chinese sprangletop (Leptochloa chinensis); conditions: amount of applied herbicide 320 g/ha
How it was run: (§4)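 Plants were sown in alluvial soil held under 0.1–0.5 cm standing water and grown 14 days in a greenhouse at 25–30 °C. An emulsifiable formulation, water-diluted to the set dose, was then sprayed onto the foliage, and effects were scored three weeks later using previously defined criteria.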

barnyard grass [5] = assay: Test Example 3: herbicidal effect by foliage application, Wagner pot (Table 18, symbol H); format: in vivo, barnyard grass (Echinochloa crus-galli); conditions: amount of applied herbicide 320 g/ha
How it was run: as §4

rice flat sedge = assay: Test Example 3: herbicidal effect by foliage application, Wagner pot (Table 18, symbol E); format: in vivo, rice flat sedge (Cyperus iria); conditions: amount of applied herbicide 320 g/ha
How it was run: as §4

velvetleaf = assay: Test Example 5: herbicidal effect by foliage application, plastic box (Table 20, symbol M); format: in vivo, velvetleaf (Abutilon theophrasti); conditions: foliage application, 320 g/ha, evaluated 3 weeks after application
How it was run: as §1

lambsquarters = assay: Test Example 5: herbicidal effect by foliage application, plastic box (Table 20, symbol O); format: in vivo, lambsquarters (Chenopodium album); conditions: foliage application, 320 g/ha, evaluated 3 weeks after application
How it was run: as §1

Japanese bulrush = assay: Test Example 1: herbicidal activity, application before weed generation under submerged conditions (Table 16, symbol B); format: in vivo, Japanese bulrush (Schoenoplectus juncoides); conditions: amount of applied herbicide 320 g/ha
How it was run: as §2

southern crabgrass = assay: Test Example 4: herbicidal effect by soil treatment (Table 19, symbol F); format: in vivo, southern crabgrass (Digitaria ciliaris); conditions: amount of applied herbicide 320 g/ha
How it was run: as §3

green foxtail [6] = assay: Test Example 4: herbicidal effect by soil treatment (Table 19, symbol G); format: in vivo, green foxtail (Setaria viridis); conditions: amount of applied herbicide 320 g/ha
How it was run: as §3

blackgrass [7] = assay: Test Example 4: herbicidal effect by soil treatment (Table 19, symbol J); format: in vivo, blackgrass (Alopecurus myosuroides); conditions: amount of applied herbicide 320 g/ha
How it was run: as §3

Italian ryegrass = assay: Test Example 5: herbicidal effect by foliage application, plastic box (Table 20, symbol K); format: in vivo, Italian ryegrass (Lolium multiflorum); conditions: foliage application, 320 g/ha, evaluated 3 weeks after application
How it was run: as §1

barnyard grass [8] = assay: Test Example 5: herbicidal effect by foliage application, plastic box (Table 20, symbol H); format: in vivo, barnyard grass (Echinochloa crus-galli); conditions: foliage application, 320 g/ha, evaluated 3 weeks after application
How it was run: as §1

Compound | N (redroot pigweed) herbicidal effect grade (redroot pigweed [1]) | R (persian speedwell) herbicidal effect grade (persian speedwell) | Herbicidal effect, A: late watergrass (late watergrass) | G (green foxtail) herbicidal effect grade (green foxtail [2]) | N: redroot pigweed, herbicidal effect grade (redroot pigweed [3]) | J (blackgrass) herbicidal effect grade (blackgrass [4]) | L (windgrass) herbicidal effect grade (windgrass) | Herbicidal effect on D (Chinese sprangletop), foliage application (Chinese sprangletop) | Herbicidal effect on H (barnyard grass), foliage application (barnyard grass [5]) | Herbicidal effect on E (rice flat sedge), foliage application (rice flat sedge) | M (velvetleaf) herbicidal effect grade (velvetleaf) | O (lambsquarters) herbicidal effect grade (lambsquarters) | Herbicidal effect, B: Japanese bulrush (Japanese bulrush) | F: southern crabgrass, herbicidal effect grade (southern crabgrass) | G: green foxtail, herbicidal effect grade (green foxtail [6]) | J: blackgrass, herbicidal effect grade (blackgrass [7]) | K (Italian ryegrass) herbicidal effect grade (Italian ryegrass) | H (barnyard grass) herbicidal effect grade (barnyard grass [8])
COCCOc1ccc(-c2oc3ccc(F)cc3c2-c2c(O)c(C)nn(C)c2=O)cc1 [9-045] | 5 (Herbicidal rate of 90% or more (almost completely withered)) | 5 (Herbicidal rate of 90% or more (almost completely withered)) | 5 (Herbicidal rate of 90% or more (almost completely withered)) | 5 (Herbicidal rate of 90% or more (almost completely withered)) | 5 (Herbicidal rate of 90% or more (almost completely withered)) | 5 (Herbicidal rate of 90% or more (almost completely withered)) | 3 (Herbicidal rate of 40% or more and less than 70%) | 3 (Herbicidal rate of 40% or more and less than 70%) | 5 (Herbicidal rate of 90% or more (almost completely withered)) | 5 (Herbicidal rate of 90% or more (almost completely withered)) | 5 (Herbicidal rate of 90% or more (almost completely withered)) | 5 (Herbicidal rate of 90% or more (almost completely withered)) | 5 (Herbicidal rate of 90% or more (almost completely withered)) | 5 (Herbicidal rate of 90% or more (almost completely withered)) | 5 (Herbicidal rate of 90% or more (almost completely withered)) | 5 (Herbicidal rate of 90% or more (almost completely withered)) | 5 (Herbicidal rate of 90% or more (almost completely withered)) | 5 (Herbicidal rate of 90% or more (almost completely withered))
CCCOc1ccc(-c2oc3ccc(C)cc3c2-c2c(O)c(C)nn(C)c2=O)cc1 [9-049] | 5 (Herbicidal rate of 90% or more (almost completely withered)) | 5 (Herbicidal rate of 90% or more (almost completely withered)) | 5 (Herbicidal rate of 90% or more (almost completely withered)) | 5 (Herbicidal rate of 90% or more (almost completely withered)) | 5 (Herbicidal rate of 90% or more (almost completely withered)) | 4 (Herbicidal rate of 70% or more and less than 90%) | 0 (Herbicidal rate of 5% or less (almost no effect)) | 2 (Herbicidal rate of 20% or more and less than 40%) | 5 (Herbicidal rate of 90% or more (almost completely withered)) | 3 (Herbicidal rate of 40% or more and less than 70%) | 5 (Herbicidal rate of 90% or more (almost completely withered)) | 5 (Herbicidal rate of 90% or more (almost completely withered)) | 5 (Herbicidal rate of 90% or more (almost completely withered)) | 4 (Herbicidal rate of 70% or more and less than 90%) | 4 (Herbicidal rate of 70% or more and less than 90%) | 0 (Herbicidal rate of 5% or less (almost no effect)) | 5 (Herbicidal rate of 90% or more (almost completely withered)) | 5 (Herbicidal rate of 90% or more (almost completely withered))
CCCC(=O)Oc1c(C)nn(C)c(=O)c1-c1c(-c2ccc(SCC)cc2)oc2ccc(C)cc12 [9-058] | 5 (Herbicidal rate of 90% or more (almost completely withered)) | 5 (Herbicidal rate of 90% or more (almost completely withered)) | 5 (Herbicidal rate of 90% or more (almost completely withered)) | 5 (Herbicidal rate of 90% or more (almost completely withered)) | 5 (Herbicidal rate of 90% or more (almost completely withered)) | 3 (Herbicidal rate of 40% or more and less than 70%) | 0 (Herbicidal rate of 5% or less (almost no effect)) | 3 (Herbicidal rate of 40% or more and less than 70%) | 5 (Herbicidal rate of 90% or more (almost completely withered)) | 5 (Herbicidal rate of 90% or more (almost completely withered)) | 5 (Herbicidal rate of 90% or more (almost completely withered)) | 5 (Herbicidal rate of 90% or more (almost completely withered)) | 5 (Herbicidal rate of 90% or more (almost completely withered)) | 5 (Herbicidal rate of 90% or more (almost completely withered)) | 5 (Herbicidal rate of 90% or more (almost completely withered)) | 0 (Herbicidal rate of 5% or less (almost no effect)) | 5 (Herbicidal rate of 90% or more (almost completely withered)) | 4 (Herbicidal rate of 70% or more and less than 90%)
Cc1ccc2oc(-c3ccc(SC(C)C)cc3)c(-c3c(O)c(C)nn(C)c3=O)c2c1 [9-059] | 5 (Herbicidal rate of 90% or more (almost completely withered)) | 5 (Herbicidal rate of 90% or more (almost completely withered)) | 5 (Herbicidal rate of 90% or more (almost completely withered)) | 5 (Herbicidal rate of 90% or more (almost completely withered)) | 5 (Herbicidal rate of 90% or more (almost completely withered)) | 1 (Herbicidal rate of 5% or more and less than 20%) | 1 (Herbicidal rate of 5% or more and less than 20%) | 3 (Herbicidal rate of 40% or more and less than 70%) | 5 (Herbicidal rate of 90% or more (almost completely withered)) | 5 (Herbicidal rate of 90% or more (almost completely withered)) | 5 (Herbicidal rate of 90% or more (almost completely withered)) | 5 (Herbicidal rate of 90% or more (almost completely withered)) | 3 (Herbicidal rate of 40% or more and less than 70%) | 0 (Herbicidal rate of 5% or less (almost no effect)) | 3 (Herbicidal rate of 40% or more and less than 70%) | 0 (Herbicidal rate of 5% or less (almost no effect)) | 5 (Herbicidal rate of 90% or more (almost completely withered)) | 3 (Herbicidal rate of 40% or more and less than 70%)

From patent US20230085307A1, “PYRIDAZINONE COMPOUND AND HERBICIDE” (NISSAN CHEMICAL CORPORATION, priority 2019, published 2023)
